The values that follow come from patent publication US8999955B2, “Tetrahydrocyclopenta[c]acridine derivatives as kinase inhibitors and biological” (Centre National de la Recherche Scientifique, priority 2008, dated 2015).

The target in one data set is CDK5 (Homo sapiens (Human), UniProt Q00535). The experiment in a line: Enzyme inhibition test, radiolabeled ATP, CDK5. Type of data set: biochemical. The note with it: dose-response curves. The protocol: (§1) The tests are carried out as follows: the enzyme to be assayed was purified, for example by affinity chromatography on agarose beads. The catalytic activity was measured using radiolabeled ATP, at a standard final concentration. The test compounds were added at various concentrations making it possible to establish dose-response curves (activity of the enzyme as a function of the concentration). The IC50 values were calculated from these curves and are given in μM.

A further data set concerns SHSY cells. The data set is described as follows: MTS test, viability of SHSY cells. Format: cell-based. The note with it: MTS reduction. The protocol: The viability of SHSY cells is determined by measuring the MTS reduction as described in (6).
In the next data set the target is CDK1. The experiment in a line: Enzyme inhibition test, radiolabeled ATP, CDK1. Type of data set: biochemical. The note with it: dose-response curves. Here is the method:
as §1

SMILES strings stand for the structures. “And” between values parts separate entries of the source, which are not always exact repeats. Identical values can stand only once.

Sequence of CDK5 (Q00535 whole entry, species assumed): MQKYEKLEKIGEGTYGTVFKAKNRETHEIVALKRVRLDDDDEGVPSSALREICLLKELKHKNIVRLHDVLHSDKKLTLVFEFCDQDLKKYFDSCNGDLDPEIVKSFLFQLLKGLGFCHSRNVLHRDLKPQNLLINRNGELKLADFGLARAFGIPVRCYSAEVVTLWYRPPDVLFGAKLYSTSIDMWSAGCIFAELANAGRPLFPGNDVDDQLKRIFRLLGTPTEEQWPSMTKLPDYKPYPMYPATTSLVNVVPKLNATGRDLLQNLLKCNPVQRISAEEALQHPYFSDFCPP
Sequence of CDK5 (Q15078 99-307 partner, species assumed): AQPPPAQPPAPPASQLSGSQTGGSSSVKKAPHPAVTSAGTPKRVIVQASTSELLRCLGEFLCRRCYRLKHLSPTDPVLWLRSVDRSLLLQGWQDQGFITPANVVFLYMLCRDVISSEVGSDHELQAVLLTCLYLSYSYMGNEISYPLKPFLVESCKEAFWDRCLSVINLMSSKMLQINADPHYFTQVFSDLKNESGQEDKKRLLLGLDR

Turning to `C[Si](C)(C)C1=C2c3nc4ccccc4cc3C(O)CC2CC1=O` (racemic) [5-Hydroxy-1-trimethylsilanyl-3,3a,4,5-tetrahydro-2H-cyclopenta[c]acridin-2-one], the melting point (in general, the temperature, or range, at which the solid turns liquid) lay within 167 to 168 °C. Further, the IC50 (in general, the concentration that inhibits the measured activity by half) on CDK5 lay within 1.6 to 2.3 µM. For the same molecule, the “% survival of SHSY cells at 10 μM” value in the data set on SHSY cells is given as 85%.
Regarding `C[Si](C)(C)C1=C2c3nc4ccccc4cc3C(O)CC2CC1=O` (single isomer, unassigned) [5-hydroxy-1-trimethylsilanyl-3,3a,4,5-tetrahydro-2H-cyclopen] [5-hydroxy-1-trimethylsilanyl-3,3a,4,5-tetrahydro-2H-cyclopenta[c]acridin-2-one], the IC50 against CDK5 was 26 µM and 3 µM.
For `CC(=O)c1cc2ccccc2nc1C#Cc1ccccn1` [1-(2-(Pyridin-2-ylethynyl)quinolin-3-yl)ethanone], the “% survival of SHSY cells at 10 μM” value in the data set on SHSY cells was 4%.
On the same count and under the same terms, next, `C=CC(O)c1cc2ccccc2nc1C#C[Si](C)(C)C` (stereo not drawn) [1-(2-(Trimethylsilanylethynyl)quinolin-3-yl)propan-2-en-1-ol]: 0.4%.
Same read-out and setting: next, `C[Si](C)(C)C#Cc1nc2ccccc2cc1C(=O)CC[N+](=O)[O-]` [1-(2-Trimethylsilanylethynyl)quinolin-3-yl)propan-3-nitro-1-one]: 47%.
As to `C=CCC(O)c1cc2ccccc2nc1C#CCOC1CCCCO1` (stereo not drawn) [1-(2-[3-(Tetrahydropyran-2-yloxy)prop-1-ynyl]quinolin-3-yl)but-3-en-1-ol], the “% survival of SHSY cells at 10 μM” value in the data set on SHSY cells came out at 2%.
For the molecule `C[Si](C)(C)C1=C2c3nc4ccccc4cc3C(Cl)CC2CC1=O` (stereo not drawn) [5-Chloro-1-trimethylsilanyl-3,3a,4,5-tetrahydro-2H-cyclopenta[c]acridin-2-one], the 50% inhibitory concentration (IC50) against CDK1 stood at 3.6 µM; at CDK5, 63 µM.
`COc1cc2cc3c(nc2cc1OC)C1=C([Si](C)(C)C)C(=O)CC1CC3O` (stereo not drawn) [5-Hydroxy-8,9-dimethoxy-1-trimethylsilanyl-3,3a,4,5-tetrahydro-2H-cyclopenta[c]acridin-2-one] registered a melting point of 221 to 222 °C. The molecule further registered an IC50 against CDK1 of 1.7 µM. On CDK5, this molecule came in with an IC50 of 3.3 µM.
For `COc1ccc2nc3c(cc2c1)C(O)CC1CC(=O)C([Si](C)(C)C)=C31` (stereo not drawn) [5-Hydroxy-8-methoxy-1-trimethylsilanyl-3,3a,4,5-tetrahydro-2H-cyclopenta[c]acridin-2-one], in that order: 186 °C, 1.7 µM and 4 µM.
In turn, `COc1ccc2cc3c(nc2c1)C1=C([Si](C)(C)C)C(=O)CC1CC3O` (stereo not drawn) [5-Hydroxy-9-methoxy-1-trimethylsilanyl-3,3a,4,5-tetrahydro-2H-cyclopenta[c]acridin-2-one] returned a melting point of 187 °C. The IC50 at CDK1 is 1.6 µM. Further, at CDK5, the midpoint of inhibition, the IC50, lay at 4.8 µM. Besides, in the data set with SHSY cells, the “% survival of SHSY cells at 10 μM” value was 44%.
Take `CCCCC1=C2c3nc4ccccc4cc3C(=O)CC2CC1=O` (stereo not drawn) [5-Keto-1-butyl-3,3a,4,5-tetrahydro-2H-cyclopenta[c]acridin-2-one]: in the data set on SHSY cells, the “% survival of SHSY cells at 10 μM” value was found to be 38%.
